In US10000469B2, “Heat shock protein 70 (hsp-70) receptor ligands” (Duke University, priority 2014, dated 2018):

Legend:
GFP-Hsp70i = target: T1, GFP-Hsp70i (Homo sapiens, UniProt P0DMV8); assay: FLECS elution of GFP-Hsp70i from γ-phosphate-linked ATP resin; format: binding; details: compared with HS-71
T1 construct: host or cells: HEK 293T
Procedure: FLECS Screen: A pEGFP-tagged Hsp70i was (plasmid 15215, Addgene, Cambridge, Mass.) used in the FLECS assay and was originally cloned according to [Zeng et al. (2004). Hsp70 dynamics in vivo: effect of heat shock and protein aggregation. Journal of cell science 117, 4991-5000]. ATP used in the assay was purchased from Sigma (St. Louis, Mo.) and a 200 mM stock was prepared with low salt buffer (150 mM NaCl, 25 mM Tris, pH 7.5, 60 mM MgCl2). The γ-phosphate ATP sepharose was synthesized as previously described and stored in low salt buffer [Haystead et al. (1993). Gamma-phosphate-linked ATP-sepharose for the affinity purification of protein kinases. Rapid purification to homogeneity of skeletal muscle mitogen-activated protein kinase kinase. European journal of biochemistry/FEBS 214, 459-467]. FuGENE 6 transfection reagent (Roche, Mannheim, Germany) was used for transfection of GFP-Hsp70i into HEK 293T cells, following the manufacturer protocol. The transfection ensued for 48 hours, upon which time the cells were harvested and lysed in cell lysis buffer (150 mM NaCl, 50 mM Tris, pH 7.5, 1% Triton X-100, 1 mM EDTA, 1 mM DTT, and 1 tablet Complete Mini protease inhibitor (Roche)). Cell lysates were stored at −80° C. until further use. Upon binding the resin lysates were washed 3× with high stringency wash buffer (1 M NaCl, 25 mM Tris, pH 7.5, 60 mM MgCl2, 1 mM DTT) and 3× with low stringency wash buffer (150 mM NaCl, 25 mM Tris, pH 7.5, 60 mM MgCl2, 1 mM DTT). […]
Assembly of a focused library, consisting of 3379 purine like compounds, was described previously [Carlson et al. (2013). Fluorescence Linked Enzyme Chemoproteomic Strategy for Discovery of a Potent and Selective DAPK1 and ZIPK Inhibitor. […] The lysates were eluted from the filter plate onto a catch plate by centrifugation and the fluorescence of the eluates was measured. […] Next, the presence of GFP-Hsp70i in the eluates from the 197 primary hits was determined by Western blot. […]

caspase-3/7 = assay: Caspase 3/7 assay in cancer cells; format: cell-based
Procedure: Caspase 3/7 Assay: The Amplite™ Fluorimetric Caspase3/7 assay kit (AAT Bioquest, Sunnyvale, Calif.) was used per the manufacturer's instructions. Briefly, a fluorometric indicator, Ac-DEVD-AMC, was used to determine caspase activity. […] Cells were seeded at 60,000 cells/well in a 96 well plate and treated with compound for the indicated period of time. Diluted caspase 3/7 assay solution was added to each well and incubated at room temperature for 2 hours protected from light, upon which time fluorescence was measured on the Victor X2 plate reader (Perkin Elmer, Waltham, Mass.).

[1] = HS-72 PK in plasma, kidney and liver; format: in vivo, mice
Procedure: HS-72 PK: Wild-type mice were injected IP with HS-72 and sacrificed 5 minutes, 1 hour, 4 hours, 8 hours, and 24 hours post injection. Untreated animals were included as control and called 0 minutes. Each time point consisted of 3 animals. At the indicated time points liver, kidney, and blood was harvested from each animal. Whole blood was centrifuged and only the plasma was retained. Whole liver and kidneys were frozen and stored at −80° C. until processing. Before quantifying HS-72 in the plasma and tissue a standard curve was made using HS-72 and N-(1-methyl-1H-benzo[d]imidazol-2-yl)-1-(pyrazin-2-yl)piperidine-3-carboxamide (“HS-156”), as the internal standard. HS-72 and HS-156 were diluted in water and were further diluted 1:4 in acetonitrile. The resulting solution was then filtered through a 0.2 μm PTFE membrane (VWR, Radnor, Pa.). 15 uL of the solution was run through an Eclipse Plus C18 column (Agilent, Santa Clara, Calif.) and analyzed by an Agilent Ion Trap 6130 LC-MS (Agilent, Santa Clara, Calif.). The total ion chromatogram (TIC), extracted ion chromatogram (EIC), UV chromatogram, and mass spectra (MS) were obtained for each run. The area under the curve from the EIC for HS-72 at 364-366 and for HS-156 at 337 was determined. The EIC area ratio for HS-72 compared to HS-156 was calculated and this ratio was used to plot a standard curve based on the known concentrations of HS-72. The plasma samples were processed in the same manner as in the standard curve and analyzed by LC-MS. The resulting EIC ratios from HS-72 compared to HS-156 were then determined, which was used to calculate the concentration of HS-72 in the diluted sample. The concentration in solution of HS-72 was adjusted for the 1:4 dilution that occurs during sample preparation. The final concentration of HS-72 in plasma was calculated per mL of plasma. The liver and kidney samples were weighed and homogenized in tissue lysis buffer. The resulting homogenate was then processed in the same manner as the plasma samples. The resulting EIC ratios from HS-72 compared to HS-156 were then determined, which was used to calculate the concentration of HS-72 in the diluted sample. The concentration in solution of HS-72 was adjusted for the 1:4 dilution that occurs during sample preparation. Final concentration of HS-72 in the kidney and liver was calculated per gram of tissue using the weight of each tissue measured before sample processing.

[2] = 24 hours, IP 20 mg/Kg, n=3, SEM

T1 sequence (P0DMV8 whole entry): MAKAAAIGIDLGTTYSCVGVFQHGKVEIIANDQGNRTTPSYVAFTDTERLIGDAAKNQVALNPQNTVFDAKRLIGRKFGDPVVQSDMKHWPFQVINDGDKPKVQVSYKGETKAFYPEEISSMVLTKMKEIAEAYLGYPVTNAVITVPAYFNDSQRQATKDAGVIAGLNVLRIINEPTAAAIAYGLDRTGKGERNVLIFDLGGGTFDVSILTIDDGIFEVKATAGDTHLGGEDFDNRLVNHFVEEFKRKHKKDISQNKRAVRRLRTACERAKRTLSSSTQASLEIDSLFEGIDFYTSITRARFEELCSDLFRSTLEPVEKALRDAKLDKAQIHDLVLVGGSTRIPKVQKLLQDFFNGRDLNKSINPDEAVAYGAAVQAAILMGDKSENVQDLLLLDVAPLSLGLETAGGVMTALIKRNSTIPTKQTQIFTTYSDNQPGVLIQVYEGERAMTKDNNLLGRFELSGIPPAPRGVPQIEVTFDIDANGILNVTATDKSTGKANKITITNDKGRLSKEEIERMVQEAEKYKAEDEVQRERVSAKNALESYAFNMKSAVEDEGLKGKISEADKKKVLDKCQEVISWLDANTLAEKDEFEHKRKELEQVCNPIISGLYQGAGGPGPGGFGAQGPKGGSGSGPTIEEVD

**Q.** With `CCCn1c(NC(=O)[C@H]2CCCN(c3cnccn3)C2)nc2ccccc21` [HS-72, (S)—N-(1-propyl-1H-benzo[d]imidazol-2-yl)-1-(pyrazin-2-yl)piperidine-3-carboxamide] as the molecule, how does the “elution of GFP-Hsp70 from the ATP resin, S vs. R enantiomer” value (GFP-Hsp70i) read?
**A.** more effective

**Q.** What about the caspase activation (caspase-3/7; 6 hours and 24 hours, dose dependent) of the same molecule?
**A.** reproducible across several cancer cell lines

**Q.** And the caspase activation (caspase-3/7; various cancer cells)?
**A.** inducing caspase activation in a dose dependent manner

**Q.** And the plasma concentration ([1]; 5 minutes post IP injection, 20 mg/Kg, n=3, SEM)?
**A.** 70 ± 30 µM

**Q.** And the kidney concentration ([1]; 5 minutes, IP 20 mg/Kg, n=3, SEM)?
**A.** 0.43 ± 0.08 µmol/g

**Q.** What about the plasma concentration ([1]; 8 hours post IP injection, 20 mg/Kg, n=3, SEM) of the same molecule?
**A.** 2 ± 0.2 µM

**Q.** And the liver concentration (peak) ([1]; 8 hours, IP 20 mg/Kg, n=3, SEM)?
**A.** 2.26 ± 0.5 µmol/g

**Q.** And the kidney concentration [1, 2]?
**A.** 0.02 ± 0.004 µmol/g

**Q.** What about the liver concentration [1, 2] of the same molecule?
**A.** 0.51 ± 0.11 µmol/g

**Q.** What about the “plasma [HS-72] maintained” value ([1]; for at least 8 hours) of the same molecule?
**A.** > 20 µM

**Q.** What about the concentration at 24 hours ([1]; mouse, plasma, 24 hours post IP injection, 20 mg/Kg, read-out: plasma concentration, trace amounts) of the same molecule?
**A.** < 10 µM

**Q.** And the half-life ([1]; mouse, plasma, IP 20 mg/Kg, n=3, SEM, read-out: T1/2 elimination from plasma (converted))?
**A.** 24 ± 6 min

**Q.** What about the “metabolism in plasma, kidney and liver” value ([1]; parent MS ion of 365.2 Da detected intact) of the same molecule?
**A.** no evidence of rapid metabolism
